Assay results from publication PMC8162347, “Bolaamphiphilic Bis-Dehydropeptide Hydrogels as Potential Drug Release Systems” (Gels, 2021).

Tests used:
[1] = Gelation study, pH trigger with GdL, vial inversion test; assay type: physicochemical; details: for pH (gelation conditions): pH of hydrogel at cgc after GDL 0.4 wt %; for Critical Gelation Concentration (cgc): vial inversion test, water, NaOH (1 M) to circa pH 10, then GDL 0.4 wt %
Excerpt: Nonetheless, dimeric dehydropeptides 1–4 could be dissolved in water upon pH adjustment to pH 10–11, which was achieved by addition of NaOH solution (1 M). Gel formation was triggered by a slow pH drop. The pH change was obtained by the aqueous hydrolysis of added D-glucono-δ-lactone (GdL) to D-gluconic acid. […] The CGCs of hydrogels 1–3 were qualitatively assessed by varying the peptide concentrations and conducting vial inversion tests.
Dehydrodipeptides 1, 2 and 3 were weighed into sample vials, water was added, and the suspension was adjusted under magnetic stirring to circa pH 10 (pH meter) by the addition of NaOH (1 M), and D-glucono-δ-lactone (GDL) was added. The solutions were left standing overnight at room temperature (20–25 °C).

[2] = Oscillatory rheology of hydrogels; assay type: physicochemical; details: for k (growth rate constant) / kn (nucleation rate constant): fit of Equation (1) to gelation kinetics; for dG: fit of Equation (1), increment in storage modulus during the kinetics; for Initial time lag before the significant rise in G′: gelation kinetics, 0.001% strain; for Initial time lag before the significant rise in G′ / G′ / G″: 25 °C; for Initial time lag before the significant rise in G′ / Thermal stability of gel (variation of G′): 1 Hz; for Thermal stability of gel (variation of G′): heating–cooling cycle between 25 and 40 °C, 1 °C/min, strain 0.005%; for G′ / G″: hydrogel at structural equilibrium, frequency sweep 100 to 0.1 Hz, strain 0.01%
Excerpt: This is due to the rather small deformation used during this test to allow gel formation without disturbing the build-up of the network structure. In contrast to this, see the data for compounds 1 and 2. A two-step model is often used to describe the nucleation (with rate constant kn) and growth (with rate constant k) of aggregates of peptides:(1) f(t) = G0 + dGρ(e^(1+ρ)kt − 1)/1 + ρe^(1+ρ)kt where ρ = kn/k , G0 is the initial storage modulus of the aggregate-free solution, and dG is the increment in the storage modulus during the kinetics.
After reaching the structural equilibrium established by the reading of constant shear moduli G′ and G″ with time, a frequency-sweep from 100 down to 0.1 Hz was performed with a strain of 0.01% (Figure S6 in Supplementary Information). For hydrogels obtained from compounds 1, 2, and 3, G′ is essentially constant over the frequency domain tested, and it is 10 times larger than G″. Overall, all mechanical spectra are qualitatively similar and reminiscent of the rheological signature of gels, as G′ is higher than G″ for hydrogels of compounds 1–3 (Table 3). ′
After the thermal cycle, gels were submitted to a strain sweep, where the frequency was maintained at 1 Hz. The hydrogels of compounds 2 and 1 break up more easily than hydrogel of compound 3 (Figure 7). […] In summary, and connecting the rheological data to the structural information inferred from both STEM and CD, coil conformers of compound 2 rapidly self-assemble to build a rubber-like (entropic) network, which brings most of the gel elasticity. This is in contrast to the elastically weaker gels of compound 3, which are predominantly made from the networking of fibrils likely formed from beta conformers. Gels of compound 1 show intermediate elasticity, originating from the slower networking of a mixture of coil and beta sheet conformers.
The viscoelastic characterization of hydrogels was performed with a stress-controlled rotational rheometer Anton Paar MCR300 (Anton Paar GmbH, Graz, Austria). Gel-forming solutions were loaded in the shearing geometry (a Couette cell with 1 mL volume and 0.5 mm gap) at 25 °C. The liquid sample was pre-sheared at a shear rate of 5 s^−1 during one minute to homogenize the sample in the shearing geometry. Then, the gelation kinetics was monitored during 10 h by applying a small amplitude (0.001%) oscillatory shear at 1 Hz and recording both storage (G′) and loss (G″) moduli at each second. Then, mechanical spectra were recorded, and gels were submitted to a heating–cooling cycle between 25 and 40 °C at a rate of +/−1 °C/min. Finally, gels were submitted to a strain sweep.

[3] = test system: HaCaT cell line (human keratinocytes); test: MTT assay, cell viability; assay type: cell-based; details: 24 h; for Apparent loss of cell viability (mitochondrial activity): most concentrations tested, independent of concentration
Description: Human keratinocytes cell line HaCaT was from ATCC. Cells were cultured in DMEM supplemented with 10% FBS and 1% penicillin/streptomycin and were incubated at 37 °C, in a humidified atmosphere of 5% CO2.
Cells were seeded in 96-well plates (1.5 × 10^4 cells/well) and left to attach for 24 h. After this period, cells were incubated with different concentrations of the molecules under study for another 24 h. Then, cell viability was evaluated based on the ability of metabolically active cells to convert MTT to formazan over the course of 2 h. Absorbances were measured at 570 nm in a Multiskan GO plate reader (Thermo Fisher Scientific; Waltham, MA, USA) and results were expressed as percentage of the respective control and correspond to the mean ± standard error of the mean (SEM) of at least three independent experiments performed in triplicate. On the other hand, to assess the release of the stable cytosolic enzyme lactate dehydrogenase (LDH) into the media, 24 h after the incubation of the cells with the different concentrations of the molecules under study, 40 µL of culture media were removed to a 96-well plate. LDH released was determined using a CytoTox 96® assay kit (Promega; Madison, WI, USA) according to the manufacturer’s instructions. Then, 1% Triton X-100 was used as positive control to assure cell lysis (30 min). Absorbances were measured at 490 nm in a Multiskan GO plate reader (Thermo Fisher Scientific; Waltham, MA, USA), and results correspond to the fold-increase of absorbance in treated vs. untreated cells of three independent experiments performed in duplicate. Following assessment of the distribution of the results, ANOVA was performed using GraphPad Prism 8.0 (GraphPad Prism Inc., San Diego, CA, USA).

[4] = Sustained release assay of model cargo from hydrogels
Description: Hydrogels containing cationic, anionic, or zwitterionic model drugs were prepared using the same conditions described in Section 2.2 but with the water component (1 mL) being replaced by a methylene blue solution, methyl orange solution, or ciprofloxacin solution. In a modified version of the method described by Abraham et al., water was carefully layered on top of the hydrogel surface. Then, the percentage release of model drug was recorded versus time, over 6 days, through UV absorption measurements or by HPLC and then subsequently fitted to a standard calibration curve (Figure S10 in Supplementary Information). The experiments were also assessed visually (Figure 9). […] In the studies involving the release of methyl orange, a clearly visible release of the anionic dye into the layered water solution was observed from the three hydrogels after several days (Figure 9B,D,F centre). The results for the release of methyl orange were also confirmed quantitatively by UV absorption measurements. Hydrogelators 1 and 3, which contain a phenylalanine residue, release nearly 60% of the anionic methyl orange cargo, whereas hydrogel 2, containing a tyrosine residue, released more than 90%. […] Ciprofloxacin was included as an overall neutral cargo. In experiments involving hydrogels of compounds 1–3 containing ciprofloxacin, the amount of ciprofloxacin present in the above water layer was determined by HPLC at various time-points. Hydrogelators 1, 2, and 3 release 32%, 58%, and 20% of their ciprofloxacin cargo, respectively (Table 4) (Figure S11 in Supplementary Information). As observed for methyl orange, the hydrogel that releases the greatest amount of ciprofloxacin is the hydrogel obtained from compound 2 (Table 4, Figure S11 in Supplementary Information).
To quantitatively evaluate the drug release from hydrogels 1–3, several mathematical models were tested to see which one fits the tested hydrogels. The Korsmeyer–Peppas model is the preferred model for polymeric systems. Korsmeyer described a simple relationship that described drug release from a polymeric system that includes both the diffusion and erosion of the polymer chain. The following equation describes the Korsmeyer–Peppas model: Mt/M = Kt^n
Hydrogels of 1, 2, and 3 were prepared as described in Section 4.2 to form 1 mL hydrogels containing the same concentration of the hydrogelators described above and the appropriate cargo (methylene blue ([…]), methyl orange (0.2 nM), or ciprofloxacin (0.2 nM)), in a slightly modified version of the procedure described by Abraham et al.. After allowing to stand overnight, 1.5 mL of water was carefully added to the surface of the hydrogels. Aliquots of the layered solution (100 μL) were removed at 1 h, 2 h, 3 h, 4 h, 6 h, 24 h, 72 h, and 6 days from the time the water was initially layered on top of the hydrogel. After removing each aliquot, the volume water was immediately replaced by an equal volume of water. The concentration of methylene blue or methyl orange in each aliquot was determined by measuring the absorbance at λmax of the dye (666 nm for methylene blue and 465 nm for methyl orange) using a microplate reader and then converting the value to percentage release (using a standard calibration curve). The concentration of ciprofloxacin in each aliquot was determined using analytical HPLC, where the integrated peak area was converted to a percentage release (using a standard calibration curve). Each experiment was performed in triplicate, and the mean percentage cargo release was plotted against time.

[5] = Cbz-capped dehydrodipeptides; cited from earlier work
Description: Our research group, and others, have reported new dehydropeptides capable of forming hydrogels. The presence of a dehydroamino acid residue imparts increased proteolytic resistance into the hydrogels, as well as different physical properties arising from the decreased structural flexibility of the dehydropeptide chain [13, 14, 15, 16]. In our laboratories, several dehydrodipeptides capped on the N-terminus with naproxen (e.g., Npx-L-Phe-Z-ΔPhe-OH and Npx-L-Trp-Z-ΔPhe-OH) were prepared and tested as hydrogelators, providing hydrogels with critical gelation concentrations (CGCs) of between ... || Figure 1 (A) Our previously studied naproxen- and carboxybenzyl-capped dehydropeptide hydrogelators. (B) Examples of bolaamphiphilic hydrogelators in the literature. (C) Summary of hydrogel properties. (D) Combining the structures of N-capped dehydrohydropeptide gelators and bolaamphiphilic gelators into a single molecule. TEXT PRINTED IN THE PICTURE: (C) a: cgc (wt%): 0.4 (pH: 8.0) | (C) b: cgc (wt%): 0.4 (pH: 6.0) | (C) c: cgc (wt%): 0.1 (pH: 5.0) | (C) d: cgc (wt%): 0.2 (pH: 5.0) | (C) e: cgc (wt%): 2.5 (pH: 2.0) | (C) f: cgc (wt%): 5.0 (pH: 3.3)

[6] = standing overnight at room temperature (20–25 °C)

Molecule	pH (gelation conditions) [1]	Critical Gelation Concentration (cgc) ([1]; overnight at room temperature)	Critical Gelation Concentration (cgc) [1, 6]	dG [2]	Thermal stability of gel (variation of G′) [2]	G′ [2]	G″ [2]	G0 ([2]; fit of Equation (1) (Saitô) to gelation kinetics, initial storage modulus)	Hydrogel formation ([1]; slow pH drop by GdL hydrolysis from pH 10–11, for 4 several triggers (pH, temperature, solvent exchange), 0.3–0.8 wt %)	k (growth rate constant) [2]	kn (nucleation rate constant) [2]	Initial time lag before the significant rise in G′ [2]	Apparent loss of cell viability (mitochondrial activity) [3]	K, release rate constant, Korsmeyer–Peppas model ([4]; ciprofloxacin release profile)	n, release exponent, Korsmeyer–Peppas model ([4]; ciprofloxacin release profile)	K, release rate constant, Korsmeyer–Peppas model ([4]; methyl orange release profile)	n, release exponent, Korsmeyer–Peppas model ([4]; methyl orange release profile)	Effect on HaCaT viability [3]	Loss of mitochondrial activity ([3]; the two highest concentrations)	CGC [5]
O=C(O)/C(=C/c1ccccc1)NC(=O)[C@H](Cc1ccccc1)NC(=O)c1ccc(C(=O)N[C@@H](Cc2ccccc2)C(=O)N/C(=C\c2ccccc2)C(=O)O)cc1 [Compound 1]	5.10	4.0 mM	0.3 wt %	2392 ± 66 Pa	not thermally sensitive	2.5 × 10^3 Pa	6.5 × 10^1 Pa			0.18 ± 0.10 h⁻¹	0.40 ± 0.04 h⁻¹	2300 s	around 20%	0.0200	0.3300	0.0200	0.4000			
Cbz-L-Phe-Z-ΔPhe-OH																				0.1%
Cbz-L-Tyr-Z-ΔPhe-OH																				0.1%

More lines, main results first:

pH (gelation conditions) [1]	Critical Gelation Concentration (cgc) ([1]; overnight at room temperature)	Critical Gelation Concentration (cgc) [1, 6]	dG [2]	Thermal stability of gel (variation of G′) [2]	G′ [2]	G″ [2]	G0 ([2]; fit of Equation (1) (Saitô) to gelation kinetics, initial storage modulus)	Hydrogel formation ([1]; slow pH drop by GdL hydrolysis from pH 10–11, for 4 several triggers (pH, temperature, solvent exchange), 0.3–0.8 wt %)	Molecule	k (growth rate constant) [2]	kn (nucleation rate constant) [2]	Initial time lag before the significant rise in G′ [2]	Apparent loss of cell viability (mitochondrial activity) [3]	K, release rate constant, Korsmeyer–Peppas model ([4]; ciprofloxacin release profile)	n, release exponent, Korsmeyer–Peppas model ([4]; ciprofloxacin release profile)	K, release rate constant, Korsmeyer–Peppas model ([4]; methyl orange release profile)	n, release exponent, Korsmeyer–Peppas model ([4]; methyl orange release profile)	Effect on HaCaT viability [3]	Loss of mitochondrial activity ([3]; the two highest concentrations)	CGC [5]
4.15	5.1 mM	0.4 wt %	5722 ± 39 Pa	shows a thermal hysteresis	4.5 × 10^3 Pa	1.4 × 10^2 Pa	0 ± 25 Pa		O=C(O)/C(=C/c1ccccc1)NC(=O)[C@H](Cc1ccc(O)cc1)NC(=O)c1ccc(C(=O)N[C@@H](Cc2ccc(O)cc2)C(=O)N/C(=C\c2ccccc2)C(=O)O)cc1 [Compound 2]	1.84 ± 0.04 h⁻¹	0.02 ± 0.001 h⁻¹	4600 s		0.0030	0.5800	0.0900	0.2700	mostly devoid of any effect	around 10%	
5.30	3.7 mM	0.3 wt %			3.7 × 10^2 Pa	1.3 × 10^1 Pa			O=C(O)/C(=C/c1ccccc1)NC(=O)[C@H](Cc1ccccc1)NC(=O)c1ccc2cc(C(=O)N[C@@H](Cc3ccccc3)C(=O)N/C(=C\c3ccccc3)C(=O)O)ccc2c1 [Compound 3]				around 20%	0.0001	0.6300	0.0400	0.3300			
	No hydrogel	No hydrogel						failed to give hydrogels	O=C(O)/C(=C/c1ccccc1)NC(=O)[C@H](Cc1ccc(O)cc1)NC(=O)c1ccc2cc(C(=O)N[C@@H](Cc3ccc(O)cc3)C(=O)N/C(=C\c3ccccc3)C(=O)O)ccc2c1 [Compound 4]				around 20%							
